Test results as given in patent US6248575A, “Nucleic acids encoding polypeptides having L-amino acid oxidase activity” (Novozymes Biotech, Inc., priority 1999, dated 2001).

Tests used:
[1] = target: T1, Trichoderma harzianum CBS 223.93 L-amino acid oxidase (Trichoderma harzianum, UniProt A0A2T4A4V3); experiment: Substrate specificity: specific activity and Km with various L-amino acids as substrates; format: biochemical; details: for Specific Activity / activity of the L-amino acid oxidase towards the substrate: phosphate buffer pH 8.5, room temperature; for Specific Activity: 20 minutes; for ranking of Km values among substrates: comparison of the substrates of Table 1; for Km: Lineweaver-Burk plots (1/v versus 1/s)
T1 sequence (A0A2T4A4V3 with tags, fused parts or gaps V19I/P71L/S84P/G163K/E317K/D352E/Y353H/V383A/D435A/DEL437-437/D438T/D462E/L570R/R580K/V618I): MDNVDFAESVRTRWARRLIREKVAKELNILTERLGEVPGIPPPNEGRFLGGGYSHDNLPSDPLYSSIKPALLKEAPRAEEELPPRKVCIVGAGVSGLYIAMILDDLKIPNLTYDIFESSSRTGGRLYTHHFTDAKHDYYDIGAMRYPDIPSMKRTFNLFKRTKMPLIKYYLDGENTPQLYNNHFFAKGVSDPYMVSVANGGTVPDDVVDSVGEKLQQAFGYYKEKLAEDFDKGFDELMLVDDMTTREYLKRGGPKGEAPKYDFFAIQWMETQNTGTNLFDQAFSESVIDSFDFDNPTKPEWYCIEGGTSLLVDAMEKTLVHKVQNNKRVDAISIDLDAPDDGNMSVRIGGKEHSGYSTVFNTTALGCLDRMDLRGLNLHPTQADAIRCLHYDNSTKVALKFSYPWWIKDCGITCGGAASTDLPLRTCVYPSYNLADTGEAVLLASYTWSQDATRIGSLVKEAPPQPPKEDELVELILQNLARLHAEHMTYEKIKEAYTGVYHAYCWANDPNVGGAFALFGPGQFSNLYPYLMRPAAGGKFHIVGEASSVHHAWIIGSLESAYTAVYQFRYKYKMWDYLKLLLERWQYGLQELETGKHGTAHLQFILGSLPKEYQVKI
Description: (§1) In the following characterization experiments, detection of H2 O2 was carried out using a Coprinus cinereus peroxidase (CiP), obtained according to WO 92/16634, at a level of 4.5 PODU/ml, and 0.4 mM ABTS in phosphate buffer at pH 7.0. The hydrogen peroxide concentrations were determined relative to a freshly prepared hydrogen peroxide standard solution.
For determination of substrate specificity, the activity of the L-amino acid oxidase was determined with various L-amino acids as substrates. The L-amino acid oxidase was incubated with the substrate in phosphate buffer at pH 8.5 and room temperature for 20 minutes. Generated hydrogen peroxide was detected using ABTS and CiP as described above. The specific activity was determined as described in Example 2 above.
Km values for the various substrates were determined by plotting values of 1/v versus 1/s (Lineweaver-Burk plots).

[2] = Specific activity of the purified L-amino acid oxidase; format: biochemical, Trichoderma harzianum; details: 50 mM phosphate buffer pH 8.5, 20° C., 1 mM L-arginine as substrate
Description: For purposes of the present invention, L-amino acid oxidase activity is determined according to the procedure described in WO 94/25574 where the hydrogen peroxide produced during the […] of L-arginine is measured by coupling the reaction to a peroxidase in the presence of 2,2'-azinobis(3-ethylbenzothiazoline-6sulfonate) (ABTS) which produces a greenish-blue color at 418 nm. One unit of L-amino acid oxidase activity is defined as 1.0 μmole of hydrogen peroxide produced per minute at 20° C. in 50 mM phosphate buffer at pH 8.5 with 1 mM L-arginine as substrate.
The specific activity of the purified L-amino acid oxidase was 16 U/mg determined in a 50 mM phosphate buffer at pH 8.5, 20° C. with 1 mM L-arginine as substrate. One unit of enzyme will form 1 μmole of hydrogen peroxide per minute. The amount of protein was quantified assuming that a solution of the L-amino acid oxidase having an optical density of 1 determined at 280 nm contains 1 mg of protein/ml. The L-amino acid oxidase yield was approximately 50 mg of pure protein per liter of culture medium.

[3] = pH activity profile / pH optimum of the L-amino acid oxidase; format: biochemical, Trichoderma harzianum; details: 20 minutes, 1 mM L-arginine, 100 mM phosphate buffer; FIG. 1
Description: as §1
(§2) For determination of the pH optimum, the assay was carried out in two steps. In the first step, the L-amino acid oxidase was incubated for 20 minutes with 1 mM of L-arginine in 100 mM of phosphate buffer at various pH values. In the second step, the generated hydrogen peroxide was detected as described above.

[4] = pH stability of the L-amino acid oxidase (residual activity); format: physicochemical, Trichoderma harzianum; details: 1 hour at 40° C., 50 mM phosphate buffer, FIG. 2
Description: as §1, §2
For determination of pH stability, the L-amino acid oxidase was incubated at various pH values for 1 hour at 40° C. in 50 mM of phosphate buffer. After dilution, residual activity was measured using the two-step procedure described above.

[5] = Temperature stability of the L-amino acid oxidase (residual activity); format: physicochemical, Trichoderma harzianum; details: phosphate buffer pH 8.5, 1 hour, FIG. 3
Description: as §1, §2
For determination of temperature stability, the L-amino acid oxidase was incubated in phosphate buffer at pH 8.5 for 1 hour at various temperatures. After dilution, residual activity was measured using the two-step procedure described above.

Molecule: NC(=O)C[C@H](N)C(=O)O [L-asparagine]
- Specific Activity ([1]; Substrate Conc. 80 mM): 7 U/mg
- activity of the L-amino acid oxidase towards the substrate [1]: showed activity

Molecule: CC(C)C[C@H](N)C(=O)O [L-leucine]
- Specific Activity ([1]; Substrate Conc. 80 mM): 16 U/mg
- activity of the L-amino acid oxidase towards the substrate [1]: showed activity

Molecule: N=C(N)NCCC[C@H](N)C(=O)O [L-arginine]
- Specific Activity ([1]; Substrate Conc. 1 mM): 16 U/mg
- Specific Activity ([1]; Substrate Conc. 10 mM): 30 U/mg
- ranking of Km values among substrates [1]: lowest Km values
- preferred substrate ([1]; from the experiments of Table 1): preferred substrate
- activity of the L-amino acid oxidase towards the substrate [1]: showed activity

Molecule: CSCC[C@H](N)C(=O)O [L-methionine]
- Km [1]: 15 mM
- Specific Activity ([1]; Substrate Conc. 80 mM): 8 U/mg
- activity of the L-amino acid oxidase towards the substrate [1]: showed activity

Molecule: N[C@@H](Cc1ccccc1)C(=O)O [L-phenylalamine]
- Specific Activity ([1]; Substrate Conc. 80 mM): 25 U/mg
- activity of the L-amino acid oxidase towards the substrate [1]: showed activity

Molecule: NCCCC[C@H](N)C(=O)O [L-lysine]
- Km [1]: 0.2 mM
- Specific Activity ([1]; Substrate Conc. 1 mM): 7 U/mg
- ranking of Km values among substrates [1]: lowest Km values
- activity of the L-amino acid oxidase towards the substrate [1]: showed activity

B1: L-amino acid oxidase: purified L-amino acid oxidase from Trichoderma harzianum CBS 223.93; deduced protein of 617 amino acids (SEQ ID NO. 2) (protein)
chain: T1 sequence (A0A2T4A4V3 with tags, fused parts or gaps V19I/P71L/S84P/G163K/E317K/D352E/Y353H/V383A/D435A/DEL437-437/D438T/D462E/L570R/R580K/V618I)
- specific activity of the purified L-amino acid oxidase [2]: 16 U/mg
- pH interval in which activity is shown [3]: from pH below 7 to a pH of approximately 12
- pH optimum [3]: ~9 pH
- pH stability relative to initial activity ([4]; pH 10): more than 70%
- pH stability relative to initial activity ([4]; range pH 7-9.5): more than 80%
- temperature range in which the enzyme is stable [5]: from below 22 °C to above 60 °C
- temperature stability relative to initial activity ([5]; range 25° C. to 60° C.): more than 80%
